Measured values published in US12029789B2, “Agent for use in the treatment of glioma” (DC EUROPA LIMITED, priority 2015, dated 2024).

Columns and labels:
[1] = test system: S24 GBMSC astrocytoma cells; assay: In vivo calcium imaging with MPLSM: intercellular calcium waves (frequency, synchronicity of calcium peaks) in tumor cells; parameters: species or system mouse
Experimental: The following small molecule calcium indicators were used: for GFP-transfected tumor cells: 2 mM Rhod-2AM (life technologies, R-1244); for RFP-transfected: 2 mM Fluo-4AM (life technologies, F-14201). The dissolved dyes were applied to the brain surface for 45 min. Regions with a similar tumor cell density were used. […] Pharmacological gap junction inhibition was achieved by superfusion with the gap junction inhibitor CBX (100 μM; control substance: extracellular saline; n=3 mice per group).
Two genetically-encoded calcium indicators were lentivirally transduced to GBMSCs: (A) The Lck-GCaMP3 sensor in the rrl-CAG-IGC3 vector (CAG promoter to control expression of DsRed and the Ca^2+ sensor that monitors near-membrane changes in [Ca^2+]i). (B) The radiometric calcium sensor Twitch-3 was used to determine intracellular calcium concentrations by Förster Resonance Energy Transfer (FRET) as known in the art.
Tumor cells or non-malignant brain astrocytes were marked manually by the use of the ROI Manager of ImageJ. Mean gray values were measured over time. […] Local maxima of calcium signals were detected by the findpeaks function (signal package, Octave-Forge). Thus, the number of calcium peaks of each cell (N) could be determined and the frequency (f) was calculated. The frequency was standardized for the cell number of each region to ensure comparability. Synchronous cells, the number of synchronous communications, and the time point of the synchronous firing were determined. Due to the fact that the images were recorded via a line mode, which leads to a latency of signal detection, the analysis was done in a window of 2 frames around each peak. This allowed to assess the synchronicity S (S∈R^+∪{0}), which was defined as the fraction of the whole number of synchronous cells (N_Syn) divided by the number of calcium peaks for the given cell (N_Ca). In case the cells were not active, a synchronicity of zero was allotted.
For example, in a system with a synchronicity of 1, a firing cell interacts with a second one. […]

S24 GBMSCs = assay: Intratumoral microinjection of sulforhodamine 101 (SR101): dye distribution in TM-connected tumor cell network; assay type: in vivo, mouse; details: SR101 100 μM co-injected with 100 μM CBX, 120 min after injection; FIG. 7G
Experimental: For intratumoral microinjection of sulforhodamine 101 (SR101, Molecular Probes, S-359), 50 nl of 100 μM SR101 (with or without 100 μM CBX, Sigma-Aldrich, C4790) were injected with a very thin glass pipette into tumor regions of similar cellular densities, >90 days after tumor injection.
For in vivo imaging data, TM numbers, branches/TM and connections/cell were counted manually, and TM lengths were measured manually in the slice mode in Imaris. For quantification and analysis of tumor cells/TMs before and after radiotherapy, cells were counted in the same regions before radiation or sham radiation, and at different time points afterwards. Cells without a TM-connection were defined as “non-connected” and cells with at least one TM-connection(s) as “connected”. To analyze the number of TMs before and after irradiation, the TMs of individual, identical cells were counted at both time points. Ratios were calculated to determine the relative changes of cell and TM numbers over time. For the measurement of tumor volumes in BT088 tumors before and after radiotherapy, two regions were analyzed per animal using the surface function of Imaris. The mean speed of tumor cell invasion in S24 shControl vs. shGAP-43 tumors was determined by analysis of three consecutive imaging time points within a 24 hour time interval in vivo. […] They were connected to tracks and the mean track speed was calculated. […]

normal brain astrocytes = assay: In vivo calcium imaging with MPLSM: calcium waves in co-registered normal brain astrocytes; parameters: species or system mouse; details: superfusion with suramin 100 μM (ATP receptor blockade); FIG. 8D
Experimental: The following small molecule calcium indicators were used: for GFP-transfected tumor cells: 2 mM Rhod-2AM (life technologies, R-1244); for RFP-transfected: 2 mM Fluo-4AM (life technologies, F-14201). The dissolved dyes were applied to the brain surface for 45 min. Regions with a similar tumor cell density were used. For the combination of radiotherapy and calcium imaging, mice were pretreated with Fluo-4AM and imaged after awaking with low isoflurane (0.5%). One hour after radiotherapy, the same regions were imaged again to detect changes in calcium activity. Pharmacological gap junction inhibition was achieved by superfusion with the gap junction inhibitor CBX (100 μM; control substance: extracellular saline; n=3 mice per group). […]
Tumor cells or non-malignant brain astrocytes were marked manually by the use of the ROI Manager of ImageJ. Mean gray values were measured over time. […] Local maxima of calcium signals were detected by the findpeaks function (signal package, Octave-Forge). Thus, the number of calcium peaks of each cell (N) could be determined and the frequency (f) was calculated. […] Synchronous cells, the number of synchronous communications, and the time point of the synchronous firing were determined. Due to the fact that the images were recorded via a line mode, which leads to a latency of signal detection, the analysis was done in a window of 2 frames around each peak. […]

NCCOB(c1ccccc1)c1ccccc1 [2-APB, 2-aminoethoxydiphenyl borate]
ICWs between astrocytoma cells ([1]; superfusion with 2-APB 100 μM (inhibitor of IP3 receptors), FIG. 8D): reduced ICWs

CC1(C)[C@@H](OC(=O)CCC(=O)O)CC[C@]2(C)[C@H]3C(=O)C=C4[C@@H]5C[C@@](C)(C(=O)O)CC[C@]5(C)CC[C@@]4(C)[C@]3(C)CC[C@@H]12 [CBX, carbenoxolone]
frequency and synchronicity of ICWs in GBMSC astrocytoma cells ([1]; brain superfusion with 100 μM carbenoxolone (CBX) vs. extracellular saline, S24, FIG. 7E): reduced | distribution of sulforhodamine 101 in the TM-connected tumor cell network (S24 GBMSCs): inhibited

Cc1ccc(C(=O)Nc2ccc(S(=O)(=O)O)c3cc(S(=O)(=O)O)cc(S(=O)(=O)O)c23)cc1NC(=O)c1cccc(NC(=O)Nc2cccc(C(=O)Nc3cc(C(=O)Nc4ccc(S(=O)(=O)O)c5cc(S(=O)(=O)O)cc(S(=O)(=O)O)c45)ccc3C)c2)c1 [suramin]
ICWs in malignant astrocytic cells ([1]; superfusion with suramin 100 μM (ATP receptor blockade), FIG. 8D): reduced ICWs | ICWs in normal astrocytic cells (normal brain astrocytes): reduced ICWs
